Experiment [1] has as its system Vero. Nature of the experiment: cells. Conditions: Chlorocebus sabaeus. Type of experiment: functional, cell-based.
The target in experiment [2] is T1, Coagulation factor XII (Homo sapiens, UniProt P00748).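 Note: activated factor XIIa alpha cleaving a fluorogenic AMC peptide substrate; inhibitor potency from loss of enzyme activity.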
T1 sequence (P00748 whole entry): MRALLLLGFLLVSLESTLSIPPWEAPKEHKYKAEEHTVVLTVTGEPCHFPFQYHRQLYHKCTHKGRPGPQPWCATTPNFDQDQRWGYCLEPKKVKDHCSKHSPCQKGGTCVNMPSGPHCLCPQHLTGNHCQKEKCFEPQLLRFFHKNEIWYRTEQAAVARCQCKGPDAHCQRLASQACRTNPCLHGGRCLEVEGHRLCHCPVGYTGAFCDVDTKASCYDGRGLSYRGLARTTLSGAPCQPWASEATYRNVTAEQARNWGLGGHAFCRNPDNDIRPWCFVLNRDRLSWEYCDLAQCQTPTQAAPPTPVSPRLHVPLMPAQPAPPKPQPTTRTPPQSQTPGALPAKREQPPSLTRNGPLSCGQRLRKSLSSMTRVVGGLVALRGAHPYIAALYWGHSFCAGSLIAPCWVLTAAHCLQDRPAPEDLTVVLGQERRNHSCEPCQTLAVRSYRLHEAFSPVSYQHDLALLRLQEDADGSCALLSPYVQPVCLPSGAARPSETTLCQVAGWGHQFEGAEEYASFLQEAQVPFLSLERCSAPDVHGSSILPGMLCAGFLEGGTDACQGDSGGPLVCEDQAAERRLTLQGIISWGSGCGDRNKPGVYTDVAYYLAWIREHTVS
The class given is functional.

Experiment [3] has as its target T2, Beta-galactosidase (Escherichia coli, UniProt Q8VNN2). Description: PubChem AID 485352. The class given is functional.
For experiment [4], the target named is T3, Type-1 angiotensin II receptor (Homo sapiens, UniProt P30556).
T3 sequence (P30556 whole entry): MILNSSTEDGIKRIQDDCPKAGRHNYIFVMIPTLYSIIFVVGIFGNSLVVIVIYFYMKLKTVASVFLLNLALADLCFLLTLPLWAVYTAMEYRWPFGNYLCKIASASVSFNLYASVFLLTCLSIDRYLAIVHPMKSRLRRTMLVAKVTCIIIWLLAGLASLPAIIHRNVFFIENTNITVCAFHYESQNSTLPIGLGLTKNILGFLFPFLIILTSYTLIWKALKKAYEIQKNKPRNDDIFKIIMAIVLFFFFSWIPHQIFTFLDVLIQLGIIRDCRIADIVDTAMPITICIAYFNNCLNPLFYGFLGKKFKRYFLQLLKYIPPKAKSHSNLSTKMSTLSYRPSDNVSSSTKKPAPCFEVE
Nature of the experiment: antagonism of angiotensin II type 1 receptor – cell-based, uHTS hits, selectivity assay for APJ receptor antagonist project, dose response (AID 463214).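 Note: antagonist potency against angiotensin II stimulated AT1 response.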 Type of experiment: functional.

Experiment [5] can be described thus: blockers of HIV-1 envelope-mediated cell-cell fusion – cherry-pick, dose response (AID 652057). The class given is functional, cell-based.
Experiment [6] in a line: blockers of HIV-1 ZM109 envelope-driven cell-cell fusion – HeLa effector, CEM target cells, luciferase, cherry-pick, dose response (AID 652058).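 Note: luciferase signal from HIV-1 Env mediated cell-cell fusion of effector and target cells.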 The class given is functional, cell-based.
The nature of experiment [7]: off-target signal loss in HeLa-CEM21 co-culture – HeLa F-luc CTL cells, cherry-picked, counter-screen for HIV-1 Env fusion inhibitor project, dose response (AID 652040).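 Note: potency for signal decrease marking cytotoxic or nonspecific inhibition.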 The class given is functional, cell-based. (A counterscreen serves to expose hits that act by an unwanted route or on another target.)
Experiment [8] is described as follows: HIV-1 AD8 envelope cell-cell fusion blockers – cherry-pick, dose response (AID 652062).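 Note: luciferase signal from cell-cell fusion driven by HIV-1 clade B AD8 Env; potency is for inhibitors of fusion seen as a drop in luminescence.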 Type of experiment: functional, cell-based.
Experiment [9] is described as follows: reduction of Shn3 3'UTR-driven luciferase in osteoblasts – cell-based, Clone20 osteoblasts, firefly luciferase, cherry-picked, dose response (AID 624132).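 Note: firefly luciferase luminescence from reporter carrying the Shn3 3'UTR in osteoblasts.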 The class given is functional.
Experiment [10] is described as follows: loss of viability in HepG2 cells – cell-based, CellTiter-Glo, cherry-picked, cytotoxicity control for Shn3 inhibitor project, dose response (AID 624134). Type of experiment: functional.
Experiment [11] is described as follows: non-specific 3'UTR reporter inhibition in Clone20-Shn3RL – cell-based, Renilla luciferase, cherry-picked, counter-screen for Shn3 inhibitor project, dose response (AID 624133). Type of experiment: functional.
Experiment [12] has as its target T2, Beta-galactosidase. Nature of the experiment: Dose response counterscreen for EBI2 assay utilizing the enzyme, b-galactosidase. Type of experiment: functional.
Experiment [13] in a line: NIH-3T3 fibroblast cytotoxicity, dose response, cytotoxicity control, cell-based, fluorescence, Alamar Blue, secondary assay (AID 2327).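 Note: NIH-3T3 mouse fibroblasts cultured with fluconazole at 8 µg/mL.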 Type of experiment: functional. Background: The colour change of resazurin is a common sign of viable cells or microbes.
Experiment [14] is described as follows: fluconazole-exposed Candida albicans growth modulators – fluorescence, retest, confirmation (AID 2467). Type of experiment: functional, cell-based.
Experiment [15] has as its target T4, Polyadenylate-binding protein 1 (Homo sapiens, UniProt P11940). Description: MLLE binding blockers, Cy5 peptide tracer – biochemical, fluorescence polarization, Cy5-PAM2 peptide, secondary, miRNA deadenylation inhibitor project, dose response (AID 602260). The class given is functional. The conditions noted are these: read-out: IC50_Mean. A general note: Polarisation of emitted light reports the rotation of a fluorescent probe.

Experiment [16] has as its target T4, Polyadenylate-binding protein 1. Description: MLLE domain peptide-binding blockers, IC50 – biochemical, fluorescence polarization, FITC-PAM2 peptide, dose response (AID 602259). Type of experiment: functional. The conditions noted are these: read-out: IC50_Mean.
Experiment [17] concerns the target Melanocortin receptor 4 (Homo sapiens, UniProt P32245). Description: inhibitors of MC4R cAMP signaling – cell-based, TR-FRET, biased antagonists, dose response (AID 602298).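 Note: antagonist potency against agonist-stimulated cAMP production.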 The class given is functional.
Experiment [18] can be described thus: cAMP pathway inhibition in counterscreen cell line – TR-FRET cAMP detection, counter-screen for MC4R biased antagonist project, dose response (AID 602305).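 Note: U2OS cells stimulated with forskolin near its EC80 as the cAMP inducer; potency is for inhibition of forskolin-stimulated cAMP signaling.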 Type of experiment: functional, cell-based.
Experiment [19] relates to Vero. Description: cells. Conditions: Chlorocebus sabaeus. Type of experiment: functional.
For experiment [20], the system named is Streptococcus sp. 'group A'. Nature of the experiment: Streptococcus pyogenes SK(-)GAS viability under kanamycin – luminescence, BacTiterGlo, confirmation, counter-screen for streptokinase expression inhibitor project, dose response (AID 1900). Type of experiment: functional, organism-based.
For experiment [21], the target named is T5, Streptokinase A (Streptococcus pyogenes serotype M1, UniProt P10520).
T5 sequence (P10520 whole entry): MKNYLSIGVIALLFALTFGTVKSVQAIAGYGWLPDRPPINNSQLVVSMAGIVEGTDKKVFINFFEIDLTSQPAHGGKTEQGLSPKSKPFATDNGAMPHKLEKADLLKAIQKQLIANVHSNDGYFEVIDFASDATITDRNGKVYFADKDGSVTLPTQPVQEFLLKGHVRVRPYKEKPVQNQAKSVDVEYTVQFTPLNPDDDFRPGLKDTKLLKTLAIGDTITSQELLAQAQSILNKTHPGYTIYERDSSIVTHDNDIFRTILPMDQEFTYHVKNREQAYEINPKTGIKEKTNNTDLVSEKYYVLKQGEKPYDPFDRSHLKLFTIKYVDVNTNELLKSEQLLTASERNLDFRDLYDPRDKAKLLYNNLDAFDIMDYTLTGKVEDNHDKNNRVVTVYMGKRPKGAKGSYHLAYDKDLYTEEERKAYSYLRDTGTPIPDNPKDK
Description: viability-normalized secreted streptokinase activity reduction – plasminogen activation absorbance, OD405, dose response (AID 1914).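 Note: secreted streptokinase activity via plasminogen activation per viability signal from cell pellet.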 Type of experiment: functional, Streptococcus pyogenes M1 GAS.

The test system of experiment [22] is Streptococcus. Nature of the experiment: GAS UMAA2166 growth inhibition – luminescence, BacTiterGlo, counter-screen for streptokinase expression inhibitor project, dose response (AID 1915).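 Note: potency for reduction of bacterial viability or growth.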 Type of experiment: functional, organism-based.
Experiment [23] can be described thus: Trypanosoma cruzi growth suppression in host cells – NIH3T3 host cells, beta-gal luminescence, confirmation (AID 2044).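 Note: intracellular parasites grown in NIH/3T3 mouse fibroblasts as host cells; luminescent beta-galactosidase reporter signal from transgenic T. cruzi replicating inside host cells; inhibitors lower the luminescence signal.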 Type of experiment: functional, cell-based.
A short description of experiment [24]: HEK-293T cell viability reduction – luminescence, B-cell screen hits, cytotoxicity control for BCR NF-kB inhibitor project, dose response (AID 489021).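 Note: HEK-293T cells carrying an NF-kB luciferase reporter; cells exposed to compound for about 14 hours before viability readout.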 The class given is functional, cell-based.
Experiment [25] can be described thus: cells. Type of experiment: functional, cell-based.
Experiment [26] in a line: cells. Type of experiment: functional, cell-based. The source holds these as a separate data set.

The source made the active and inactive calls.

T2 sequence (Q8VNN2 whole entry): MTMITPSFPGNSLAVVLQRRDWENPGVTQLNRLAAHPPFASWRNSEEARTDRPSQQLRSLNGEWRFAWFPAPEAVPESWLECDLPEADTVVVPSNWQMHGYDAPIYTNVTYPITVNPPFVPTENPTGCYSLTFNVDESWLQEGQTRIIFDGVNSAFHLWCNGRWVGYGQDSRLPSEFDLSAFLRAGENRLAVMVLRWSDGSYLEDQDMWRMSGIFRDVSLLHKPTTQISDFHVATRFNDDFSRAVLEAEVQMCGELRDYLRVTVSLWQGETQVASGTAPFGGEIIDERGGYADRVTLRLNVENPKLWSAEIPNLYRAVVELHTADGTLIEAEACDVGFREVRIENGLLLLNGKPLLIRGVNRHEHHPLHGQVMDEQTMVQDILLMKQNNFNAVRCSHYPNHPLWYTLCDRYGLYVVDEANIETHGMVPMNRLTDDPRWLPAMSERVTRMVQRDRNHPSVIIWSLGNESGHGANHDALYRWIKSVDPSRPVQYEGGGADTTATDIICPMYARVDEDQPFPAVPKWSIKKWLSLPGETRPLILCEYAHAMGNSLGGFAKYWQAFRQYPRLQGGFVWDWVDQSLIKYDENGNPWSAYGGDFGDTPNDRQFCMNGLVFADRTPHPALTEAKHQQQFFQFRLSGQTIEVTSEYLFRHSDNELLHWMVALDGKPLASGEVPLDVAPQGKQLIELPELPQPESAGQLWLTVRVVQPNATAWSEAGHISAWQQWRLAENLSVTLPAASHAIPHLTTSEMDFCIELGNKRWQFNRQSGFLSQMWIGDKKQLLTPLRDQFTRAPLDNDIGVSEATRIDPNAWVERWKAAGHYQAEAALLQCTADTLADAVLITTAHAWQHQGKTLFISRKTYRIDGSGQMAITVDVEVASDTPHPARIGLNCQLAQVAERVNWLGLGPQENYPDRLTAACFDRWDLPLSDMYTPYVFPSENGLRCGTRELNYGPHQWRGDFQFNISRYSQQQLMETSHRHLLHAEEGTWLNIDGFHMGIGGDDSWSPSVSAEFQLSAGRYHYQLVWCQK
T4 sequence (P11940 whole entry): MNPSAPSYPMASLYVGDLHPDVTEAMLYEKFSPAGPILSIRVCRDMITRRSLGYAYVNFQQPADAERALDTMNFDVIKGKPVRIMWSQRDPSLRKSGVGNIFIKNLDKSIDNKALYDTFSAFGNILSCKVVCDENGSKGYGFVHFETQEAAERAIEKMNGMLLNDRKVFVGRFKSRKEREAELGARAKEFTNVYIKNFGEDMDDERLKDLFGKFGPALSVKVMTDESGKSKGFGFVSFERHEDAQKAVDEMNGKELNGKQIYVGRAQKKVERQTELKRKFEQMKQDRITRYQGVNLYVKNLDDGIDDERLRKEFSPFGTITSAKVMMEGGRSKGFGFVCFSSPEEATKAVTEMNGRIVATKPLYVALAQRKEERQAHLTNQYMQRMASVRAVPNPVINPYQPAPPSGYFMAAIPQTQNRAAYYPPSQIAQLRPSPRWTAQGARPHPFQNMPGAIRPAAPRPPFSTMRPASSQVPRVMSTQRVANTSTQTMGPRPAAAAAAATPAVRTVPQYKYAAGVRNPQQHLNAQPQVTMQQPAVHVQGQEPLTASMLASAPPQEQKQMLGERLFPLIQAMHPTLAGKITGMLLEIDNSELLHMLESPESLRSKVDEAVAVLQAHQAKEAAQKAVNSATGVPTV
Sequence of Melanocortin receptor 4 (P32245 whole entry): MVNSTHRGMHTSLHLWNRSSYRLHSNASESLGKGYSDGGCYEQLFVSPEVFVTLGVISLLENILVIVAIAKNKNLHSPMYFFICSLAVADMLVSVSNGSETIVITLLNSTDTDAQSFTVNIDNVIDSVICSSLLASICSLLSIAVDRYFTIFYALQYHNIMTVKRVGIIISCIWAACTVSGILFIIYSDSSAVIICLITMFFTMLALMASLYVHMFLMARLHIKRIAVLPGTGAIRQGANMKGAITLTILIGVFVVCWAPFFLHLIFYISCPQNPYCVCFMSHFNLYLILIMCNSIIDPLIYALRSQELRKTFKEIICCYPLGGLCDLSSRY

With `O=C1C2CCCN2C(c2ccccc2)N1c1ccc(Cl)cc1` (stereo unspecified), in experiment [1], the IC50 is > 25 µM (active).
In the case of `COc1cccc(NC(=O)Nc2cccnc2)c1`, the IC50 in experiment [2] is > 50 µM (inactive).
A word on the EC50: it is the concentration that produces a half-maximal response. For `Cc1ccc2c(c1)nnn2C1CCN(CC(=O)NCCc2nc3ccccc3[nH]2)CC1`, the EC50 in [3] was > 40 µM (inactive). For the same compound, the IC50 in experiment [4] is > 40 µM (not active).
In general, AC50 refers to the concentration giving half of the maximal activity seen. Take `CCOc1ccc(OCc2cccc(C(=O)N3CCOCC3)c2)cc1`: the AC50 in experiment [5] was 2.64 µM (active); in experiment [6] it was 22 µM (active); in experiment [7], 5.29 µM (active); in experiment [8], 7.58 µM (active).
As for `CCOC(=O)c1c(O)c2cc(Cl)ccc2n(CC)c1=O`, the IC50 in experiment [2] was > 50 µM (inactive).
Regarding `Cc1nc2ccccc2c2oc(C(=O)N3CCN(C4CCCCC4)CC3)cc12`, the AC50 in experiment [9] was 7.02 µM (active); in experiment [10], 68.8 µM (active); in [11] it was 3.44 µM (active). In experiment [12], the IC50 is > 80 µM (inactive).
For the compound `Cc1cc(OCC(=O)N(C)Cc2ccccc2)ccc1Br`, the IC50 in [12] is > 80 µM (inactive).
For the compound `O=C(NNc1ccc(Cl)cc1)c1sccc1Cl`, the EC50 in experiment [13] is 3.77 µM (active); in [3] it was > 40 µM (inactive); in experiment [14], 2.04 µM (active). The IC50 in [4] is 12.4 µM (active); in experiment [15], > 66 µM (inactive); in [16], > 66 µM (inactive).
In the case of `COc1cccc(-c2noc(C3CCCN(S(=O)(=O)c4cccc(Cl)c4C)C3)n2)c1` (stereo unspecified), the AC50 in [5] is 6.22 µM (active); in [6], 10.9 µM (active); in experiment [7], 16.5 µM (active); in experiment [8], 11.9 µM (active).
Consider `COc1ccc(-n2cc(-c3ccc(Br)cc3)nc2S)cc1`, for which, in experiment [12], the IC50 was > 80 µM (inactive).
In the case of `CCN1C(=O)/C(=C\c2ccco2)C(C(=O)OC)=C1C`, the IC50 in experiment [2] is > 50 µM (inactive).
Take `O=S(=O)(c1ccc(F)cc1)N1CCN(c2nc(-c3cccnc3)nc3ccccc23)CC1`: the IC50 in experiment [17] and in experiment [18] was > 64.6 µM (inactive) in each case.
For `COc1cc(C(=O)N2CCN(c3ncnc4sc(C)c(C)c34)CC2)cc(OC)c1OC`, the AC50 is 33.7 µM (active) in experiment [5], 6.73 µM (active) in [6], 24.4 µM (active) in experiment [7] and 8.4 µM (active) in experiment [8].
On to `O=C(/C=C/c1ccc([N+](=O)[O-])cc1)N1CCN(S(=O)(=O)c2ccccc2)CC1`, for which, in experiment [12], the IC50 was > 80 µM (inactive).
In the case of `COc1ccccc1C1(CCNC(C)c2cccs2)CCOC(C(C)C)C1` (stereo unspecified), the IC50 is 10.1 µM (inactive) in experiment [17] and > 64.5 µM (inactive) in experiment [18].
`CCOC(=O)C(C(=O)NCc1cccc(OC)c1)c1ncc(C(F)(F)F)cc1Cl` (stereo unspecified): the IC50 in experiment [2] was > 50 µM (inactive).
Usually CC50 stands for the concentration at which the toxic effect on the cells reaches its halfway point. Consider `CCOC(=O)c1c(SCCN2CCCCC2)n(-c2ccccc2)c(=S)n(-c2ccccc2)c1=O`, for which, in [1], the IC50 is 20.1 µM (active). Moreover, in experiment [19], the CC50 is > 25 µM (active).
Regarding `Cc1ccc(OCC(=O)N2CCN(S(=O)(=O)c3ccc4c(c3)OCCO4)CC2)c(C)c1`, in [12], the IC50 is > 80 µM (inactive).
As to `C[C@@H]1CNC(=O)c2c(C(=O)N3CCN(c4ccccc4)CC3)ncn21`, the AC50 in experiment [5] is 7.81 µM (active); in [6] it was 14.8 µM (active); in experiment [7] it was 10.4 µM (active); in [8] it was 19.7 µM (active).
In the case of `O=[N+]([O-])c1cccc(/C=N/NS(=O)(=O)c2ccccc2)c1`, in experiment [3], the EC50 is > 40 µM (inactive). Moreover, the IC50 in experiment [4] is recorded as 24.3 µM (not active).
For the compound `Cc1ccc(Cn2cc(/C=N/NC(=O)Cc3nnc(NC(=O)c4ccc(C)cc4)s3)c3ccccc32)cc1`, the values for the EC50 in experiment [20], in experiment [21] and in experiment [22] were 2.5 µM (active), > 150 µM (not active) and 36.9 µM (active), respectively. Further, in [2], the IC50 was > 50 µM (inactive).
For the compound `Cc1ccc(Nc2nc(N/N=C\c3ccc4c(c3)OCO4)nc(N3CCOCC3)n2)cc1`, the EC50 in [20] is 21.8 µM (active); in [21] it was 111 µM (active); in [23], 393 nM (active); in [22], > 150 µM (not active). The IC50 in experiment [24] was 63.2 µM (inactive).
As to `COc1cc(/C=N/CC2OCCc3ccccc32)cc(OC)c1` (stereo unspecified), the IC50 in [25] is > 29.9 µM (inactive). Besides, the EC50 in experiment [26] was > 29.9 µM (inactive).

The values above are taken from ChEMBL document CHEMBL1201862, “PubChem BioAssay data set” (2004).
